Measurements: patent publication US5272151A, “Aminoacyl and oligopeptidyl derivatives of allopurinol exhibiting immunostimulatory activity, and pharmaceutical formulations containing these substances” (Sigma-Tau Industrie Farmaceutiche Riunite S.p.A., priority 1991, dated 1993)
Like-named read-outs stand apart in the source and are kept apart here.

Assays:
S. marcescens = assay: Protective effect in experimentally-infected immunosuppressed mice (S. marcescens); type: in vivo; details: for % Mortality, S. marcescens: cyclophosphamide-immunodepressed CD1 mice, 25 mg/kg/d i.p. day -5 through day -1, challenge day 0
Excerpt: Evaluation of the protective effects of ST 689 and ST 789 in experimentally-infected immunosuppressed mice.
Male CDl mice (Charles River, Italy), 6-10 weeks old, were used in experimental groups of 9-20 animals. Systemic infection in the mice was achieved by intrapcritoncal inoculation of a pathogenic species of Klebsiclla (K. oxytoca), Proteus (P. mirabilis), Serratia (S. marcescens),and Hscherichia (E. coli). Eighteen-hour broth cultures were used to prepare infectious inocula that were either sublethal (Proteus) or which corresponded to an LD30 (Serratia) and an LD10 (Escherichia, Klebsiella). The bacterial challenge, inoculated i.p. in 0.5 mL of 5% gastric mucin, was designed to cause the death of animals immunodepressed with cyclophosphamide (administered i.p. in 0.2 mL of sterile physiological solution at a dosage of 100 mg/kg) 5 days prior to infection. The compounds were administered i.p. at daily doses of 25 mg/kg from day -5 to day -1 with respect to the day of bacterial inoculation (day 0). The results are expressed as % mortality and were statistically analysed using Fisher's test (Biostatistics in Pharmacology, vol. 2, Pergamon Press).

rat blood granulocytes = assay: In vitro-ex vivo chemotactic activity of rat blood granulocytes (modified Boyden chamber); details: for Chemotaxis (μm ± S.E.) induced: casein-induced migration; for Chemotaxis (μm ± S.E.) induced / Chemotaxis (μm ± S.E.) spontaneous: 25 mg/kg/d i.p. day -5 through day -1; for Chemotaxis (μm ± S.E.) spontaneous: spontaneous migration (Hank's medium)
Procedure: In vitro-ex vivo effects of ST 689 and ST 789 on the chemotactic activity of rat blood granulocytes.
Inbred male Fisher 344 rats (Charles River, Italy), ca. 6 months old, were used in experimental groups of 5 animals. Test animals received the compounds at dosage of 25 mg/kg daily from day -5 through day -1 relative to the day of blood sampling (day 0). The experimental procedure employed is described in Cates, L. K. et al., Modified Boyden chamber method of measuring polymorphonuclear leukocyte chemotaxis, in Leukocyte chemotaxis, Raven Press, New York, N.Y., 1978, p. 67.
Blood was sampled from decapitated animals that, after passage through heparinised gauze, was diluted 1/1 with dextran (1.5% in physiological solution) and allowed to sediment for 90 min. The granulocytes, extracted from whole blood by the usual methods; were brought to a concentration of 2×10^6 cells/mL in Hank's medium. They were then deposited on Millipore filters (3 μm) and placed in migration chambers. These chambers contained either Hank's medium for the evaluation of spontaneous migration, or casein (2 mL of a 5 mg/mL solution) for the evaluation of induced migration. After incubating the samples for 60 min at 37° C. with 5% CO2, the Millipore filters were removed, stained, and inserted between microscope slides. Microscopic observations were performed to determine the furthest distance (in μm) traversed in controls and experimental samples by 2 granulocytes within the rectangular viewing field. Granulocytic migration is expressed as the average value of 10 detailed observations on two filters prepared from each sample.

Sarcoma 180 = assay: Protective effect in mice carrying Sarcoma 180; type: in vivo; details: for % survival: CD1 mice carrying Sarcoma 180; for % survival / Died/Total / MST (Mean Survival Time; median): 25 mg/kg/d i.p. day +1 through +10; for Died/Total / MST (Mean Survival Time; median): CD1 mice, 1×10^4 Sarcoma 180 cells i.p.; for MST (Mean Survival Time; median): 25 mg/kg/day; for Body weight (x ± S.E.) of Sarcoma 180-carrying animals: 25 mg/kg/d i.p., in g
Procedure: Evaluation of the protective effect of ST 689 and ST 789 in tumour-carryingmice,
Outbred male CDI mice (Charles River, Italy), 7 weeks old, were used. Experimental groups containing 10 animals were inoculated i.p. with 1×10^4 Sarcoma 180 cells (ATCC, Rockville, Md., U.S.A.) in 0.1 mL of TC 199 medium. The compounds were administered intraperitoneally in 0.2 mL of sterile physiological solution at daily doses of 25 mg/kg from day +1 through day +10 relative to the day of tumour transplant (day 0). In addition, body weights of the animals were followed from day 0 through day 20. The weights of the animals can be indicative of the development of neoplastic processes. The activity of the compounds was evaluated in terms of % survival expressed as the Mean Survival Time (MST). The data reported in Table 4 indicate a substancial protective effect of ST 689 compared to ST 789 vis-a-vis % survival (20% vs. 10%) in terms of MST (21 vs. 17).

IL-2 = assay: In vitro-ex vivo production of IL-2 by rat splenocytes (CTLL-2 bioassay); details: for IL-2 in supernates from rat splenocytes: ConA-stimulated splenocytes, 48 h, 25 mg/kg daily i.p. day -5 through day -1
Procedure: In vitro-ex vivo effect of ST 689 and ST 789 on the production of IL-2 by rat splenocytes.
Male Fisher rats (Charles River, Italy), 3 months old, in experimental groups of 5 animals, were treated with the substances at daily dosages of 25 mg/kg from day -5 through day -1 relative to the day the spleens were sampled (day 0). The experimental procedure employed was that reported in [1]. To suspensions of splenocytes, prepared in RPMI 1640 with 10% FCS+1×10^-5 M β-mercaptoethanol and standardised to a concentration of 1×10^7 cells/mL, were added equal volumes of ConA at a concentration of 18 μg/mL/well. After incubating for 48 h at 37° C. in the presence of 5% CO2 the samples were centrifuged and the supernates collected. Serial dilutions of the supernates were added to CTLL-2 cells (a line of T-cells requiring IL-2 for growth) standardised at 5×10^4 cells/mL. Following an overnight incubation, the samples were labelled with ^3 H--TdR (0.5 μCi/well)for 6 h, then the cells were collected on filters using a cell harvester, and counted (cpm) using a β-counter. The results are expressed in units of IL-2, comparing the counts in the samples to a standard curve prepared with purified IL-2 . . . ls1.

[1] = test system: CEM-CM3 human leukaemic lymphoblasts; assay: In vitro-ex vivo cytostatic activity of mouse peritoneal macrophages towards tumour targets; details: for inhibition at 25 mg/kg: Mus musculus, Peritoneal macrophage
Procedure: In vitro-ex vivo effects of substances ST 689 and ST 789 on the cytostatic activity of mouse peritoneal macrophages (MO) towards tumour targets.
Male B6 D2 F1 mice (Charles River, Italy), 7 weeks old, 5 animals per experimental group, were treated with the above substances i.p. at daily dosages of 25 mg/kg from day -5 through day -1 relative to the day of macrophage sampling (day 0). The tumour target, CEM--CM3 human leukaemic lymphoblasts, was admixed with adherent Mo so as to have two different precisely-measured effector:target ratios, viz. 10:1 and 20:1. Each sample, prepared in triplicate in flat-bottom microliter wells, was labelled with ^3 H--TdR (0.05 μCi) by incubation for 18 h at 37° C. The tumour cells from each well were collected on filters, counted in a β-counter, and the % inhibition of tumour target growth determined using the formula. [formula]

[2] = day +13, number in parentheses = animals still alive
[3] = day +15, number in parentheses = animals still alive
[4] = day +17, number in parentheses = animals still alive
[5] = day +20, number in parentheses = animals still alive

| SMILES | % Mortality, S. marcescens (S. marcescens) | Chemotaxis (μm ± S.E.) induced (rat blood granulocytes) | Chemotaxis (μm ± S.E.) spontaneous (rat blood granulocytes) | % survival (Sarcoma 180) | Died/Total (Sarcoma 180) | MST (Mean Survival Time; median) (Sarcoma 180) | Body weight (x ± S.E.) of Sarcoma 180-carrying animals (Sarcoma 180; day 0) | Body weight (x ± S.E.) of Sarcoma 180-carrying animals (Sarcoma 180; day +1) | Body weight (x ± S.E.) of Sarcoma 180-carrying animals (Sarcoma 180; day +3) | Body weight (x ± S.E.) of Sarcoma 180-carrying animals (Sarcoma 180; day +6) | Body weight (x ± S.E.) of Sarcoma 180-carrying animals (Sarcoma 180; day +8) | Body weight (x ± S.E.) of Sarcoma 180-carrying animals (Sarcoma 180; day +10) | Body weight (x ± S.E.) of Sarcoma 180-carrying animals (Sarcoma 180; [2]) | Body weight (x ± S.E.) of Sarcoma 180-carrying animals (Sarcoma 180; [3]) | Body weight (x ± S.E.) of Sarcoma 180-carrying animals (Sarcoma 180; [4]) | Body weight (x ± S.E.) of Sarcoma 180-carrying animals (Sarcoma 180; [5]) | IL-2 in supernates from rat splenocytes (IL-2) | also measured |
| --- | --- | --- | --- | --- | --- | --- | --- | --- | --- | --- | --- | --- | --- | --- | --- | --- | --- | --- |
| O=c1[nH]cnc2c1cnn2CCCCCO [ST 689, 1,5-dihydro-1-(5-hydroxypentyl)-4H-pyrazolo-[3,4-d]-pyrimidin-4-one] | 20% | 44.8 ± 1.40 μm | 14.40 ± 0.40 μm | 20% | 8/10 | 21 | 23.0 ± 0.38 | 23.7 ± 0.34 | 24.5 ± 0.50 | 27.1 ± 0.62 | 28.3 ± 0.97 | 28.4 ± 0.81 | 28.6 ± 0.89 | 30.5 ± 1.28 | 32.5 ± 1.70 | 32.6 ± 1.85 | 183.25 ± 22.55 U/mL | Protective activity in Serratia infection, in words (S. marcescens; immunodepressed mice, 25 mg/kg/d i.p.): better than ST 789; Increase of rat granulocyte chemotaxis, in words (rat blood granulocytes; 25 mg/kg/d i.p.): more active than ST 789; Neoplastic proliferation judged from body weights, in words (Sarcoma 180; compared to animals treated with ST 789): diminution of neoplastic proliferation; Production of IL-2 by splenocytes, in words (IL-2; compared to the same dosage of ST 789): increase in the production of IL-2; inhibition at 25 mg/kg ([1]; effector:target ratio 10:1, 25 mg/kg daily day -5 through day -1, read-out: % Growth Inhibition 10:1): 32.8 ± 1.84%; inhibition at 25 mg/kg ([1]; effector:target ratio 20:1, 25 mg/kg daily day -5 through day -1, read-out: % Growth Inhibition 20:1): 48 ± 5.46% |
| N=C(N)NCCC[C@H](NC(=O)OCCCCCn1cnc2c(=O)[nH]cnc21)C(=O)O [ST 789, N-alfa-5-(hypoxanthin-9-yl)-pentyloxycarbonylarginine, reference compound] | 50% | 30.4 ± 2.30 μm | 10.01 ± 1.09 μm | 10% | 9/10 | 17 | 22.8 ± 0.30 | 23.6 ± 0.34 | 24.8 ± 0.30 | 27.6 ± 0.46 | 29.5 ± 0.64 | 31.5 ± 0.92 | 32.2 ± 0.96 | 33.4 ± 1.05 | 33.7 ± 1.46 | 34.8 ± 3.90 | 98.43 ± 4.47 U/mL | Growth inhibition of the CEM-CM3 cell line, in words ([1]; 25 mg/kg daily i.p.): definite increase in growth inhibition; % Growth Inhibition 10:1 ([1]; effector:target ratio 10:1, 25 mg/kg daily day -5 through day -1): 15.85 ± 3.33%; % Growth Inhibition 20:1 ([1]; effector:target ratio 20:1, 25 mg/kg daily day -5 through day -1): 30.31 ± 5.19% |
